Experimental data: ChEMBL document CHEMBL4507310, “Data for DCP probe A-1211212” (2021)

How the values were obtained:
[1] = target: Mitogen-activated protein kinase 1 (Homo sapiens) (UniProt P28482); details: Compound concentration 1000.0 nM
[2] = target: Inhibitor of nuclear factor kappa-B kinase subunit epsilon (Homo sapiens) (UniProt Q14164); details: Compound concentration 1000.0 nM
[3] = target: Serine/threonine-protein kinase MARK1 (Homo sapiens) (UniProt Q9P0L2); details: Compound concentration 1000.0 nM
Sequence of Serine/threonine-protein kinase MARK1 (Homo sapiens) (Q9P0L2 whole entry, looked up): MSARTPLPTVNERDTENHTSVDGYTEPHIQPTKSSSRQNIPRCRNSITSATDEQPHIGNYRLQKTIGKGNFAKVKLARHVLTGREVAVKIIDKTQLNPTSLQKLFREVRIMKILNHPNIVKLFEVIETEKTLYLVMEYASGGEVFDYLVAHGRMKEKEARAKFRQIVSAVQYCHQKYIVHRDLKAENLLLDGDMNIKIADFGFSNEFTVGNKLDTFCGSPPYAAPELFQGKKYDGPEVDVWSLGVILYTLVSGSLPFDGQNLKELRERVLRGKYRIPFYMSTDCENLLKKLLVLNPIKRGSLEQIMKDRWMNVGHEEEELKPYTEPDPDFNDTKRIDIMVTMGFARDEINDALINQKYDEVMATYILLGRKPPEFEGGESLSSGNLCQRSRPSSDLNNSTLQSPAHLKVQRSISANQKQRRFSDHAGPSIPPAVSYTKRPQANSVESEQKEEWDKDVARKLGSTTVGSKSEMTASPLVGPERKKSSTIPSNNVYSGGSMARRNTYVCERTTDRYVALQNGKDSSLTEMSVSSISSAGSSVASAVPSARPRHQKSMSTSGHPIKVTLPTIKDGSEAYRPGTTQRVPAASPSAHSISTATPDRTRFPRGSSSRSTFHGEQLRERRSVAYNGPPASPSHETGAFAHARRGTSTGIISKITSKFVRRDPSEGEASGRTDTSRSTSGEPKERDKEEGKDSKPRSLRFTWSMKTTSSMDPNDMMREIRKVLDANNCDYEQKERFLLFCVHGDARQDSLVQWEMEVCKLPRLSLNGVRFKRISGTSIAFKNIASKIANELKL

[4] = target: Endothelin-1 receptor (Homo sapiens) (UniProt P25101); test: ETA (h) Eurofins-Cerep binding assay; design: ligand concentration 0.03 nM; details: filed as agonist, Compound concentration 10.0 uM
[5] = system: Epidermal growth factor receptor (Homo sapiens), P00533 [G719S]; details: Compound concentration 1000.0 nM
[6] = target: Dual specificity protein kinase CLK3 (Homo sapiens) (UniProt P49761); details: Compound concentration 1000.0 nM
Sequence of Dual specificity protein kinase CLK3 (Homo sapiens) (P49761 whole entry, looked up): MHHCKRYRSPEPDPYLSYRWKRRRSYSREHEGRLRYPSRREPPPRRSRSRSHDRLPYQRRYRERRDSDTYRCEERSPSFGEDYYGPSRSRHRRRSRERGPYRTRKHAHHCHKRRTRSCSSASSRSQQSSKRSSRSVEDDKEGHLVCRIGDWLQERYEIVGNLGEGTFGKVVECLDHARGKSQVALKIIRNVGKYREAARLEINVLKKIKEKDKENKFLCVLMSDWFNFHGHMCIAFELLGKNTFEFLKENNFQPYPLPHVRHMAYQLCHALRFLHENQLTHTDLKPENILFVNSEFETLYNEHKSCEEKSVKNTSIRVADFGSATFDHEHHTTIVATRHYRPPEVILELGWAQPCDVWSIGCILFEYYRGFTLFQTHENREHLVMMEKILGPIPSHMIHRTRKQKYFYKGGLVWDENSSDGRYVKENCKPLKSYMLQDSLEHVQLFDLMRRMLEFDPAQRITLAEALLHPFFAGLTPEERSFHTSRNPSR

[7] = target: Estrogen receptor (Homo sapiens) (UniProt P03372); test: Estrogen ER alpha (h) Eurofins-Cerep binding assay; design: ligand concentration 0.5 nM; details: filed as agonist, Compound concentration 10.0 uM
[8] = target: Sodium-dependent serotonin transporter (Homo sapiens) (UniProt P31645); test: 5-HT transporter (h) Eurofins-Cerep binding assay; design: ligand concentration 2 nM; details: filed as antagonist, Compound concentration 10.0 uM
[9] = target: Serine/threonine-protein kinase 38-like (Homo sapiens) (UniProt Q9Y2H1); details: Compound concentration 1000.0 nM
[10] = target: AP2-associated protein kinase 1 (Homo sapiens) (UniProt Q2M2I8); details: Compound concentration 1000.0 nM
[11] = target: Mitogen-activated protein kinase kinase kinase 11 (Homo sapiens) (UniProt Q16584); details: Compound concentration 1000.0 nM
[12] = target: RAC-beta serine/threonine-protein kinase (Homo sapiens) (UniProt P31751); details: Compound concentration 1000.0 nM
[13] = target: LIM domain kinase 2 (Homo sapiens) (UniProt P53671); details: Compound concentration 1000.0 nM
[14] = target: Ribosomal protein S6 kinase alpha-2 (Homo sapiens) (UniProt Q15349); details: Compound concentration 1000.0 nM
[15] = target: Cyclin-dependent kinase 4 (Homo sapiens) (UniProt P11802); details: Compound concentration 1000.0 nM
Sequence of Cyclin-dependent kinase 4 (Homo sapiens) (P11802 whole entry): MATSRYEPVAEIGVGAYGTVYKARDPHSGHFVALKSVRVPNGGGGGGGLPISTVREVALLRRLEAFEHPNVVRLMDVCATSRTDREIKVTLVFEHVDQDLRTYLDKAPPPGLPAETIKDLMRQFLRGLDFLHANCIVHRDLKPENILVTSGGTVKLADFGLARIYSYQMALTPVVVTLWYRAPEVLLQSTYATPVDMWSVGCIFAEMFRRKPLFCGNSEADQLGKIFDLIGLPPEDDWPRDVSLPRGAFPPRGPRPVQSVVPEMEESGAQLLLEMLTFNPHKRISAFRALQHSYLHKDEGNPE

[16] = target: Calcitonin-gene-related peptide receptor, CALCRL/RAMP1 (Homo sapiens) (UniProt O60894+Q16602); test: CGRP (h) Eurofins-Cerep binding assay; assay type: protein-complex assay; design: ligand concentration 0.03 nM; details: filed as agonist, Compound concentration 10.0 uM
[17] = target: Tyrosine-protein kinase Fgr (Homo sapiens) (UniProt P09769); details: Compound concentration 1000.0 nM
Sequence of Tyrosine-protein kinase Fgr (Homo sapiens) (P09769 2-529 limits assumed): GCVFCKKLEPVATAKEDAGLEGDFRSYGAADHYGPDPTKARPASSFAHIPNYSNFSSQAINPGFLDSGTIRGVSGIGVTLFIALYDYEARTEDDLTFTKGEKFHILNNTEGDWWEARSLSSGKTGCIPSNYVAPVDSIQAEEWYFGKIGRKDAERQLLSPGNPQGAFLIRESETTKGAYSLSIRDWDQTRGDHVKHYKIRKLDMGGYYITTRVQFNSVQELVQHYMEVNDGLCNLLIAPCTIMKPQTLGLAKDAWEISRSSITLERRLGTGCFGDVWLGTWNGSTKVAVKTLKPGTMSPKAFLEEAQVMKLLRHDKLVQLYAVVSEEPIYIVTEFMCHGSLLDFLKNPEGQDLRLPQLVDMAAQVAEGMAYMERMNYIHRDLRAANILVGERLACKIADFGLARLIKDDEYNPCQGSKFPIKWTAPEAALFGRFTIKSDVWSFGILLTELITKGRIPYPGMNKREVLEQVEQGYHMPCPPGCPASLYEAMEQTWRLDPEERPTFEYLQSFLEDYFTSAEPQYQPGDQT

[18] = target: Cyclin-dependent kinase 3 (Homo sapiens) (UniProt Q00526); details: Compound concentration 1000.0 nM
[19] = target: Protein kinase C iota type (Homo sapiens) (UniProt P41743); details: Compound concentration 1000.0 nM
[20] = target: Insulin-like growth factor 1 receptor (Homo sapiens) (UniProt P08069); details: Compound concentration 1000.0 nM
[21] = target: Death-associated protein kinase 3 (Homo sapiens) (UniProt O43293); details: Compound concentration 1000.0 nM
Sequence of Death-associated protein kinase 3 (Homo sapiens) (O43293 whole entry, looked up): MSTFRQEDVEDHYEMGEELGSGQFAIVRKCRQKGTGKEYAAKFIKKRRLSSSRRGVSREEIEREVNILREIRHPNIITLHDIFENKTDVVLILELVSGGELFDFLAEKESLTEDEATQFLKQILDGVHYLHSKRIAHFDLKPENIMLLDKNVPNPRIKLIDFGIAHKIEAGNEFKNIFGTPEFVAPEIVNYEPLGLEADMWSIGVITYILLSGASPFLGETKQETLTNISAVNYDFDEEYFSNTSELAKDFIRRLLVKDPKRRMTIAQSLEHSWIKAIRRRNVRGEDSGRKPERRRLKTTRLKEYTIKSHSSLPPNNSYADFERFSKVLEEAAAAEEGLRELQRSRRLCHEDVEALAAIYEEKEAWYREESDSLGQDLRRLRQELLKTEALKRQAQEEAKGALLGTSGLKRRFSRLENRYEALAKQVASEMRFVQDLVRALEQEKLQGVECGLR

[22] = target: Calcium/calmodulin-dependent protein kinase type 1 (Homo sapiens) (UniProt Q14012); details: Compound concentration 1000.0 nM
[23] = target: 5'-AMP-activated protein kinase catalytic subunit alpha-1 (Homo sapiens) (UniProt Q13131); details: Compound concentration 1000.0 nM
[24] = target: T1, Muscarinic acetylcholine receptor M5 (Homo sapiens) (UniProt P08912); test: M5 (h) Eurofins-Cerep binding assay; design: ligand concentration 0.3 nM; details: filed as antagonist, Compound concentration 10.0 uM
T1 sequence (whole entry): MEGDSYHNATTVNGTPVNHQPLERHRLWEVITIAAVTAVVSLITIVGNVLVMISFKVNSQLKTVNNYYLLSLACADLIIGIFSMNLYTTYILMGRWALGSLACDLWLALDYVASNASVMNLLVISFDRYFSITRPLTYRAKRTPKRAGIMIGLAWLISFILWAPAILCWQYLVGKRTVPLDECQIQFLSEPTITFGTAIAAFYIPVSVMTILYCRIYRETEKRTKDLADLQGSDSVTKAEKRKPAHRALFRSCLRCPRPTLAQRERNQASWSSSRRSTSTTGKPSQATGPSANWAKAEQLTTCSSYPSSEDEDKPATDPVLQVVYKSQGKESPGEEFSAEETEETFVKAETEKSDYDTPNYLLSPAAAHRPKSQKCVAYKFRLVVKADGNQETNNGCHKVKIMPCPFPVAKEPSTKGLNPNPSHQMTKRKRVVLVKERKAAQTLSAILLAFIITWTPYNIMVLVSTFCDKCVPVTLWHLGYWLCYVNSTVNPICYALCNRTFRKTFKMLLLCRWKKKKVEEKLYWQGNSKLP

[25] = target: 5-hydroxytryptamine receptor 7 (Homo sapiens) (UniProt P34969); test: 5-HT7 (h) Eurofins-Cerep binding assay; design: ligand concentration 4 nM; details: filed as agonist, Compound concentration 10.0 uM
[26] = target: P2X receptor (Rattus norvegicus) (UniProt P51579+P49653+P51578+Q64663+P47824+P51577+P49654); test: P2X Eurofins-Cerep binding assay; assay type: protein assay; design: ligand concentration 3 nM; details: filed as agonist, Compound concentration 10.0 uM
[27] = target: cAMP-dependent protein kinase catalytic subunit beta (Homo sapiens) (UniProt P22694); details: Compound concentration 1000.0 nM
[28] = target: Casein kinase II subunit alpha (Homo sapiens) (UniProt P68400); details: Compound concentration 1000.0 nM
[29] = system: Mast/stem cell growth factor receptor Kit (Homo sapiens), P10721 [L576P]; details: Compound concentration 1000.0 nM
Sequence of Mast/stem cell growth factor receptor Kit (Homo sapiens), P10721 [L576P] (P10721 whole entry L576P): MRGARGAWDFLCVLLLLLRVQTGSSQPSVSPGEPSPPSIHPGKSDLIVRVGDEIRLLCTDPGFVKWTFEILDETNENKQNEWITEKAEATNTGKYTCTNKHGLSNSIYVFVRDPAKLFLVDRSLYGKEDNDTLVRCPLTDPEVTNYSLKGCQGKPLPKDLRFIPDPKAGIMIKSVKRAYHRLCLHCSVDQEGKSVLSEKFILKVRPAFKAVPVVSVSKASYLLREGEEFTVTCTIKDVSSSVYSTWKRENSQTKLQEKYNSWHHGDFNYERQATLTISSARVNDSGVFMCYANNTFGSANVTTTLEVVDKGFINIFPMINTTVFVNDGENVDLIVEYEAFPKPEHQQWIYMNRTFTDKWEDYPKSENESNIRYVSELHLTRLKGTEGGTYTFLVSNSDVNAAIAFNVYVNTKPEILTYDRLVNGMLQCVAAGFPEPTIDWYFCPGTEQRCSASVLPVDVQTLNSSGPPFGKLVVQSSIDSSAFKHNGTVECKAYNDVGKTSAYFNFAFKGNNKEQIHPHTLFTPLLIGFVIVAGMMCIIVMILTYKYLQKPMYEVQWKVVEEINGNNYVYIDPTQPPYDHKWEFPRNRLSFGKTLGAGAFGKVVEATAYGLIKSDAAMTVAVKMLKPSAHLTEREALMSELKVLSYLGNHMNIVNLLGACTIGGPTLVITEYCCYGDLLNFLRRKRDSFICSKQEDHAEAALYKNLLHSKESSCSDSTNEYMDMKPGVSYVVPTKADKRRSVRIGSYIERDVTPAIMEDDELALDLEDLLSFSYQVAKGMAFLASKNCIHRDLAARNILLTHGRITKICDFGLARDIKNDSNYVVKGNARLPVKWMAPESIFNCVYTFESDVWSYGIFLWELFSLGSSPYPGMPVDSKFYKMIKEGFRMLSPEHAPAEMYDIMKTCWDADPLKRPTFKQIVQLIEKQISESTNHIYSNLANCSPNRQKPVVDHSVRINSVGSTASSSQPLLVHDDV

[30] = target: Mitogen-activated protein kinase 13 (Homo sapiens) (UniProt O15264); details: Compound concentration 1000.0 nM
Sequence of Mitogen-activated protein kinase 13 (Homo sapiens) (O15264 whole entry): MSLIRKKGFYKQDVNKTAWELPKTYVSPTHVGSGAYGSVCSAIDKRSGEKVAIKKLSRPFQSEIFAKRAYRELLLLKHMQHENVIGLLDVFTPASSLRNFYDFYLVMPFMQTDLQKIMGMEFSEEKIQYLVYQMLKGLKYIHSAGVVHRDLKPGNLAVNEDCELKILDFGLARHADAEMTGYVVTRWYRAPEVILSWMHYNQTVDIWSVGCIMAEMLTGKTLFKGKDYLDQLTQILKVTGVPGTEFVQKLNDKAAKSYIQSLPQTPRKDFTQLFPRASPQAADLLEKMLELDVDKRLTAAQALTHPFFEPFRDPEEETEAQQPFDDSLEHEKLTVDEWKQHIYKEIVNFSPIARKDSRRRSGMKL

[31] = target: Ribosomal protein S6 kinase alpha-3 (Homo sapiens) (UniProt P51812); details: Compound concentration 1000.0 nM
Sequence of Ribosomal protein S6 kinase alpha-3 (Homo sapiens) (P51812 whole entry): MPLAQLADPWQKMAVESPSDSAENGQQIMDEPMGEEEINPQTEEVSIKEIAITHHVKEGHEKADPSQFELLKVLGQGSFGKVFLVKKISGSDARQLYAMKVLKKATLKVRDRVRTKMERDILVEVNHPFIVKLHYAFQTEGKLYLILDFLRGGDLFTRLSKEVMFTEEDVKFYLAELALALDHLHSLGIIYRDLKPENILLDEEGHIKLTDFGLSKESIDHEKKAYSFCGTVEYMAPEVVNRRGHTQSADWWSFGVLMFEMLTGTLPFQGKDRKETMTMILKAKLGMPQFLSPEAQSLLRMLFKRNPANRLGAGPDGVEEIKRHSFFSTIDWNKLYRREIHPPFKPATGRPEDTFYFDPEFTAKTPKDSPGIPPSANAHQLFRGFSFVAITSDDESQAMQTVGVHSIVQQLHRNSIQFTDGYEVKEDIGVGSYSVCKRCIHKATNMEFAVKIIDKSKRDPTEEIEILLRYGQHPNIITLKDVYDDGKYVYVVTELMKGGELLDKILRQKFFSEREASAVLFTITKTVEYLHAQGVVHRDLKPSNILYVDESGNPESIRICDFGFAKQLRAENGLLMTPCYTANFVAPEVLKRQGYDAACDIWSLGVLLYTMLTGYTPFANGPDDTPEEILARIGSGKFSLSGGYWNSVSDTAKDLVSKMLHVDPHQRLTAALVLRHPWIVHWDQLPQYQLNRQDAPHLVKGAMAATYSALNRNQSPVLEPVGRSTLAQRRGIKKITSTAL

[32] = target: Receptor tyrosine-protein kinase erbB-3 (Homo sapiens) (UniProt P21860); details: Compound concentration 1000.0 nM
[33] = target: Serine/threonine-protein kinase 32A (Homo sapiens) (UniProt Q8WU08); details: Compound concentration 1000.0 nM
[34] = system: Receptor-type tyrosine-protein kinase FLT3 (Homo sapiens), P36888 [D835Y]; details: Compound concentration 1000.0 nM
[35] = target: Activin receptor type-2B (Homo sapiens) (UniProt Q13705); details: Compound concentration 1000.0 nM
[36] = target: Mitogen-activated protein kinase kinase kinase 6 (Homo sapiens) (UniProt O95382); details: Compound concentration 1000.0 nM
[37] = target: Mitogen-activated protein kinase kinase kinase 7 (Homo sapiens) (UniProt O43318); details: Compound concentration 1000.0 nM
[38] = target: Cyclin-dependent kinase-like 3 (Homo sapiens) (UniProt Q8IVW4); details: Compound concentration 1000.0 nM

Sequence of Mitogen-activated protein kinase 1 (Homo sapiens) (P28482 whole entry): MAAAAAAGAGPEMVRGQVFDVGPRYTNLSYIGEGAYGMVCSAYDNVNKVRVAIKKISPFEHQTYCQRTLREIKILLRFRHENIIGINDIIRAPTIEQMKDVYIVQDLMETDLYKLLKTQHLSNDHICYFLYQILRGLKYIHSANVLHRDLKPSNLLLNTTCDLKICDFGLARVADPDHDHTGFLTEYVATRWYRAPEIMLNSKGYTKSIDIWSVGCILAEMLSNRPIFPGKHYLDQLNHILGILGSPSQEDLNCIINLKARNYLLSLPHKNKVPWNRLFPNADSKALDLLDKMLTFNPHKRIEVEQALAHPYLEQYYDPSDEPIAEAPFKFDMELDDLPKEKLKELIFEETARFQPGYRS

Row | Structure (SMILES) | residual activity [1] [%] | residual activity [2] [%] | residual activity [3] [%] | % Inhibition of Control Specific Binding (Mean n=2) [4] [%] | residual activity [5] [%] | residual activity [6] [%] | % Inhibition of Control Specific Binding (Mean n=2) [8] [%] | residual activity [9] [%] | residual activity [10] [%] | residual activity [11] [%] | residual activity [12] [%] | residual activity [13] [%] | residual activity [14] [%] | residual activity [15] [%] | % Inhibition of Control Specific Binding (Mean n=2) [16] [%] | residual activity [17] [%] | residual activity [18] [%] | residual activity [19] [%] | residual activity [20] [%] | residual activity [21] [%] | other results
1 | O=C(NS(=O)(=O)c1ccc(NCC2CCOCC2)c([N+](=O)[O-])c1)c1ccc(N2CCN(Cc3ccc(C(F)(F)F)cc3-c3ccc(Cl)cc3)CC2)cc1Oc1cnc2[nH]ccc2c1 [A-1210227] | 87 | 65 | 81 | -7.6 | 76 | 100 | 0.4 | 93 | 98 | 91 | 100 | 97 | 100 | 100 | -57.7 | 100 | 100 | 100 | 100 | 91 | % Inhibition of Control Specific Binding (Mean n=2) [7]: -7.6%; residual activity [22]: 100%; residual activity [23]: 84%; % Inhibition of Control Specific Binding (Mean n=2) [24]: -1.6%; % Inhibition of Control Specific Binding (Mean n=2) [25]: 10.2%; % Inhibition of Control Specific Binding (Mean n=2) [26]: 10%; residual activity [27]: 91%; residual activity [28]: 83%; residual activity [29]: 100%; residual activity [30]: 99%; residual activity [31]: 100%; residual activity [32]: 100%; residual activity [33]: 99%; residual activity [34]: 99%; residual activity [35]: 94%; residual activity [36]: 80%; residual activity [37]: 100%; residual activity [38]: 95%
2 | CO[C@H]1CC[C@H](CNc2ccc(S(=O)(=O)NC(=O)c3ccc(N4CCN(CC5=C(c6ccc(Cl)cc6)CC(C)(C)CC5)CC4)cc3Oc3cnc4[nH]ccc4c3)cc2[N+](=O)[O-])CC1 [A-1211212] | 84 | 100 | 74 | 2.5 | 65 | 90 | -2.2 | 94 | 78 | 74 | 80 | 80 | 97 | 100 | -8 | 100 | 100 | 79 | 82 | 68 | % Inhibition of Control Specific Binding [7]: 1.9%; residual activity [22]: 88%; residual activity [23]: 73%; % Inhibition of Control Specific Binding (Mean n=2) [24]: 8.6%; % Inhibition of Control Specific Binding (Mean n=2) [25]: 11.4%; % Inhibition of Control Specific Binding (Mean n=2) [26]: -2.7%; residual activity [27]: 88%; residual activity [28]: 89%; residual activity [29]: 100%; residual activity [30]: 96%; residual activity [31]: 100%; residual activity [32]: 100%; residual activity [33]: 99%; residual activity [34]: 100%; residual activity [35]: 95%; residual activity [36]: 93%; residual activity [37]: 100%; residual activity [38]: 83%
